One data set can be described thus: in vivo. Set-up: species or system canine (beagle). To be noted: beagle, dog. Here is the method:
In parallel animal model studies, four canine (beagle) subjects were given 45 mg/kg of berberine orally. Serum concentrations of the drug were determined by HPLC at 2 and 3 hours after administration. […] After the berberine had cleared the system, the same dog was then administered 700 mg/kg of berberine and blood samples were taken 2, 3, 5, 7, 9 and 24 hours after administration resulting in concentrations of 21.51, 44.89, 49.54, 36.35, 27.83, and 16.01 ηg/ml respectively.

The next data set deals with hyperglycemic rats. Put plainly: Hyperglycemic HFHC diet/streptozotocin Wistar rats: blood glucose, serum insulin, ISI, serum lipids. In kind it is in vivo, Wistar rat. To be noted: for reduction of fasting blood glucose vs untreated rats on same HFHC diet: 14 days. As for the experimental part:
Nineteen Wistar rats (Male, 250g, the Institute of Experiment Animal Sciences, Chinese Academy of Medical Sciences, Beijing) were fed high fat and high cholesterol (HFHC) diet containing 25% lard, 20% sucrose and 5% yolk powder (Institute of Experiment Animal Sciences) for 4 weeks to induce insulin resistance status. Then, after fasting for 24 hours, 20 mg/kg of streptozotocin (Sigma) dissolved in 0.01 M citric acid buffer (pH 4.3) was injected via the tail vein. A week later, rats with blood glucose concentrations over 11.1 mmol/L were considered hyperglycemic and divided into two groups of 7 and one group of 5 as the control.
The rats in the two groups of 7 were treated with berberine orally twice a day for 14 days, at 8:00 am and 5:00 pm, with a total dose of berberine at 75 mg/kg/day or 150 mg/kg/day, respectively. Blood samples were taken by tail snip after 4 hours fasting on indicating days of treatment, and blood glucose was measured. On the last day of the experiment, all of the rats fasted overnight and were then sacrificed.
The livers were dissected and stored in liquid nitrogen for RNA extraction, real-time RT-PCR and PKC activity assay. Total blood samples were also collected to assay fasting blood glucose and serum insulin levels. The insulin levels were analyzed using radio-immunoassay (Linco Research, St Charles, Mo.). The insulin sensitivity indexes (ISI) were calculated according to the formula: 10^4/(fasting serum insulin X fasting blood glucose) (Hanson, Am. J. Epidemiol. 15 1(2), 190-198 (2000)). The insulin level and ISI of normal rats were also determined for comparison. […] It also elevated the fasting blood glucose from 7 to 12.8 mmol/L (P<0.001).

A further data set relates to InsR mRNA. Put plainly: InsR mRNA stability after actinomycin D in HepG2 cells (slot blot). The class given is cell-based, human. The conditions noted are these: HepG2, […] 8 h then actinomycin D; untreated cells 4.4 hr. As for the experimental part: HepG2 cells were treated or untreated with 7.5 μg/ml of berberine for 8 h. Then, 5 μg/ml of actinomycin D was added to block the transcription. Total cellular RNA was harvested at 0, 2, 4, 6, or 8 hours after actinomycin D treatment, and slot-blotted to nitrocellulose membranes as described above. The membranes were respectively hybridized with InsR and ACTB specific probes as described above, and bands were quantitated through densitometry. The InsR mRNA levels were normalized to ACTB, and their remaining percentages are plotted against time and the decaying rate or half-life of InsR mRNA was calculated (FIG. 21B).

A further data set concerns rats. To be noted: rat, in vivo.
The mark [1] stands for this setting: 150 mg/kg/day, 14 day treatment.

As to `COc1ccc2cc3[n+](cc2c1OC)CCc1cc2c(cc1-3)OCO2` [berberine], the concentration at 2 hours in “in vivo” (280 mg/kg) turned out to be 31400 ng/mL. The serum concentration in “in vivo” (280 mg/kg, 3 hours) is recorded as 22.6 ηg. For the same compound, in “in vivo” (700 mg/kg), the concentration at 2 hours was determined as 21.5 ng/mL, the concentration at 3 hours stood at 44.9 ng/mL, the concentration at 5 hours came out at 49.5 ng/mL and the concentration at 7 hours was determined as 36.4 ng/mL. In the data set “in vivo” (700 mg/kg), this compound came in with a concentration at 9 hours of 27.8 ng/mL and a concentration at 24 hours of 16 ng/mL. In the data set on hyperglycemic rats (75 mg/kg/day orally), the “reduction of fasting blood glucose vs untreated rats on same HFHC diet” value was 22%. In the data set with hyperglycemic rats (150 mg/kg/day orally), the “reduction of fasting blood glucose vs untreated rats on same HFHC diet” value is recorded as 33%. For the same compound, in the data set with hyperglycemic rats (setting [1]), the “reduction of LDL-c vs control animals on same HFHC diet” value amounted to 33%, the “reduction of cholesterol vs control animals on same HFHC diet” value came to 25% and the “reduction of triglyceride vs control animals on same HFHC diet” value is 24%. The “fasting serum insulin levels” value in the data set on hyperglycemic rats (insulin resistant HFHC rats) is listed as “significantly reduced the serum insulin levels”. In addition, the “turnover rate (half-life) of InsR transcript” value with InsR mRNA was 4.7 h. Also, the birth defects entry in the data set with rats was “No birth defects were evident”.

(Values after patent US20080081781A1, “Methods and compositions for the treatment of metabolic syndrome” (priority 2004, published 2008).)
